One data set concerns T-47D cells. Put plainly: Effect of inhibitors on T-47D cell proliferation (DNA content). The class given is cell-based, human. Conditions: T-47D cells, 9 d. The protocol: FIGS. 3A and 3B are graphs showing the effect compounds used in a method according preferred embodiment of the present invention, on cell proliferation. In particular, they relate to the effect of selected BSD and BNSD derivatives on T-47D cell proliferation. Cells were incubated for 9 d with the indicated concentrations of BSD-2 (∘), BNSD-4 (●), BSD-4 (□), BNSD-6 (▪), BSD-10 (Δ), BSD-4-ene (▴) and BSD-4-yne (▾) in medium containing 1 mM aminoguanidine, and total DNA content per culture was then determined. B, Effect of BNSD-X (N,N,N′,N′-tetrakis-(3-aminopropyl)-p-diaminoxylene) on cell proliferation in various mammalian cell lines. Jurkat (∘), LAN-1 (●), L1210 (□), T-47D (▪), ZR-75-1 (Δ) and MDA-MB-231 (▴) cells were grown to near confluency or saturation (for 4 to 11 d according to the cell line considered) with the indicated concentrations of BNSD-X in the presence of 1 mM aminoguanidine, and total DNA content per culture was then determined. Data are given as the mean±SD for triplicate cultures from one out of at least two identical experiments;
FIGS. 4A and 4B are graphs showing how compounds used in a method according to a preferred embodiment are differentially sensitive to degradation by BSAO (bovine serum amine oxidase). In particular, T-47D cells were incubated for 9 d with the indicated concentrations of BSD-X (∘), BNSD-X (●), BSD-3 (□) or BNSD-3 (▪) in the absence (A) or presence of 1 mM aminoguanidine (B), and total DNA content per culture was then determined. Data are presented as the mean±SD for triplicate cultures from one representative experiment;
The effect of transport inhibitors on cell proliferation was evaluated by determination of cell number (L1210, Jurkat) using electronic sizing with a Model ZM Coulter counter (Coulter Electronics, Hialeah, Fla.), or DNA content per culture (for all other cell lines) with the 3,5-diaminobenzoic acid assay. […] Cytotoxicity of the inhibitors was determined in the presence or absence of aminoguanidine, and was confirmed by a trypan blue exclusion assay.

The subject of another data set is CHO-MG cells. The data set is described as follows: Potentiation of DFMO-induced cytostasis in polyamine transport-deficient CHO-MG cells. To be noted: 2 mM DFMO; 4 d; polyamine transport mutant. It is filed as cell-based, Chinese hamster. The protocol: FIGS. 9A and 9B are graphs showing that potentiation of DFMO-induced cytostasis by a compound used in a method according to a preferred embodiment of the invention requires a functional polyamine transport system. In particular, CHO-TOR cells (A) and their polyamine transport-deficient mutant subline CHO-MG (B) were grown in medium containing 1 mM aminoguanidine and the indicated concentration of spermidine, in the presence of 2 mM DFMO (●), BNSD-X (□), DFMO+BNSD-X (▪), or vehicle only (∘). Cells were harvested after 4 d for determination of total DNA/well. Data are presented as the mean±SD for triplicate cultures from one representative experiment;
To determine the ability of polyamine transport antagonists to potentiate DFMO-induced inhibition of cell proliferation in the presence of exogenous polyamines, cells were grown for the indicated period in growth medium supplemented with 1 mM aminoguanidine, and either DFMO (1 to 5 mM), the indicated transport inhibitor (50 or 100 μM), or the combination thereof, as well as increasing concentrations of spermidine (0.1 to 300 μM). Fresh medium was added every other day, and cell mass was determined at various time points during the period of exponential growth, or at the end of the experimental period. […]

With `NCCCN(CCCN)Cc1ccc(CN(CCCN)CCCN)cc1` [28a, N,N,N′,N′-tetrakis-(3-aminopropyl)-p-diaminoxylene], the “effect of aminoguanidine addition on the cytotoxicity of the dimer” value in the data set on T-47D cells (1 mM aminoguanidine) is given as “abolished most of the cytotoxicity”. For the same compound, the “cytotoxicity in the absence of aminoguanidine” value in the data set on T-47D cells (BSAO active) was “considerably more cytotoxic than their spermidine-like homologs”. The “potentiation of DFMO-induced cytostasis in the absence of exogenous spermidine, CHO-MG” value in the data set with CHO-MG cells is on record as “not in the polyamine transport mutant”.
